Measurements published in US9321790B2, “Pyrimidinone derivatives as antimalarial agents” (SANOFI, priority 2012, dated 2016).
Where two headings read alike, the source gives them in different places.

Tests used:
human PI3Kα = human PI3Kα (Homo sapiens (Human), UniProt P42336); assay: Human PI3Kα activity test (luciferin/luciferase ATP consumption, KinaseGlo); type: biochemical
Description: The test uses a luciferin/luciferase system to measure the concentration of ATP and its consumption during the enzymatic reaction.
After 90 minutes, the reaction is quenched by adding 20 μl/well of KinaseGlo reagent (Promega V6713). After 10 minutes in the dark, the luminescence is read using a PHERAStar microplate reader (reading at 0.8 sec/well).

[1] = tested on: Plasmodium falciparum (strain NF54); assay: Antimalarial activity test: growth of Plasmodium falciparum in infected human erythrocytes, 3H-hypoxanthine incorporation; type: cell-based; conditions: strain NF54 sensitive to chloroquine, 72 h total incubation
Procedure, shortened: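 Chloroquine-sensitive NF54 parasites in human erythrocytes (1.25% hematocrit, 0.15% parasitemia) were grown in hypoxanthine-free RPMI 1640 with HEPES and Albumax II, with compound in twofold serial dilution, at 37 °C under 93% N2/4% CO2/3% O2. After 48 h, 3H-hypoxanthine (0.5 μCi) was added for 24 h. Scintillation counts versus drug-free control gave IC50.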

[2] = PI3Kα (p110α/p85α), 50 μM PIP2, 2 μM ATP, 90 minutes, read-out: IC50 Human PI3Kα
[3] = Plasmodium falciparum, Erythrocyte

Sequence of human PI3Kα (P42336 whole entry): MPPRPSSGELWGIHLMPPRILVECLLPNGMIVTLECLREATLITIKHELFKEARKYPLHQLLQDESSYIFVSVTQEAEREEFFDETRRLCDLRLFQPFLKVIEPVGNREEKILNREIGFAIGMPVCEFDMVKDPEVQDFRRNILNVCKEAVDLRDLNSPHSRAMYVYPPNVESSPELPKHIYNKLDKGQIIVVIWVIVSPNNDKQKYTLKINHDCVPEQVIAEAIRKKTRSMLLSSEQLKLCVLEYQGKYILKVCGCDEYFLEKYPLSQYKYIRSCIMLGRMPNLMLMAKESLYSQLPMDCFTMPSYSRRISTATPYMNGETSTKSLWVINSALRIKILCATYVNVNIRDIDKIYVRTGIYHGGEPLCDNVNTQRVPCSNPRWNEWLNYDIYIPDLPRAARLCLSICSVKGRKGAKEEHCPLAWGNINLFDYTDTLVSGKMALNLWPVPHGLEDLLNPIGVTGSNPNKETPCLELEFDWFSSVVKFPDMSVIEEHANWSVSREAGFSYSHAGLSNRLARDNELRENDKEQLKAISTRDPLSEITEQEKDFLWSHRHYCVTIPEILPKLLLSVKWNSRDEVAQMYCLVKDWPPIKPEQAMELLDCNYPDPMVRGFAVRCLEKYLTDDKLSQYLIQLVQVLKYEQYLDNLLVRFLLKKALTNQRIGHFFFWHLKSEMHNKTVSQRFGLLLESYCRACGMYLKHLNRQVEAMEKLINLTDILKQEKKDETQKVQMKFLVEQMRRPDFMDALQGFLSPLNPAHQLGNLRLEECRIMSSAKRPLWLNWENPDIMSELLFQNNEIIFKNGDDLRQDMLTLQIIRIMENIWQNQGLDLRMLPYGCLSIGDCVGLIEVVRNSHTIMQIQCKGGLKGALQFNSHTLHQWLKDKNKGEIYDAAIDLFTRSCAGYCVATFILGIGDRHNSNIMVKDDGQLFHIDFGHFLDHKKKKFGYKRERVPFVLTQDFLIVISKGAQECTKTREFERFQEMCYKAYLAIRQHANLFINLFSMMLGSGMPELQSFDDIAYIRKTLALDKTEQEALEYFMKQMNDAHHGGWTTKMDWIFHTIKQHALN
Sequence of human PI3Kα (P27986 whole entry partner): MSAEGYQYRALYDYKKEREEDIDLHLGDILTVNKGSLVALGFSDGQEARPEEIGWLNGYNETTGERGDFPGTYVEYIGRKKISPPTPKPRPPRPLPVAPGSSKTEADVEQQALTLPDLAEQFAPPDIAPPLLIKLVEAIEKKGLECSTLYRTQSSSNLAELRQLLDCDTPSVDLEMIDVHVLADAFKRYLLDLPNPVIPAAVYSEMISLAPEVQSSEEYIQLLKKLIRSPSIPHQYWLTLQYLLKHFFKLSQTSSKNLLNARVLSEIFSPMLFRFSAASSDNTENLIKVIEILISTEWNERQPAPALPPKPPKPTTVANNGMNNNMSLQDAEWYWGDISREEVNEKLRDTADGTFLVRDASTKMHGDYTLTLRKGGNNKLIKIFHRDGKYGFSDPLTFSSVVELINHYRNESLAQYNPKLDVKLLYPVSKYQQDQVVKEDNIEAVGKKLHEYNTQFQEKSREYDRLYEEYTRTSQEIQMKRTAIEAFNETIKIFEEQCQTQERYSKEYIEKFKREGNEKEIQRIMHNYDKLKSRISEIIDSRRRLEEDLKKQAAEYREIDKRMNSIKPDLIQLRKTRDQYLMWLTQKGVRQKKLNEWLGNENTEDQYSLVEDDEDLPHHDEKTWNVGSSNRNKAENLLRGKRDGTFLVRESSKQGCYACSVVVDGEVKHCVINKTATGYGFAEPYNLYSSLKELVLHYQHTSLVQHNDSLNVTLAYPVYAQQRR

**Q.** What does the source list for `Cn1nccc1C(=O)CN1c2nc(N3C[C@@H]4C[C@H]3CO4)cc(=O)n2CC[C@H]1C(F)(F)F` [Compound 69, (8S)-9-[2-(2-methyl-2H-pyrazol-3-yl)-2-oxoethyl]-2-(1S,4S)-2-oxa-5-azabicyclo[2.2.1]hept-5-yl-8-trifluoromethyl-6,7,8,9-tetrahydropyrimido[1,2-a]pyrimidin-4-one]?
**A.** IC50 (human PI3Kα; [2]): > 10000 nM; IC50 [1, 3]: 96 nM

**Q.** Which IC50 (human PI3Kα; [2]) does the source give for `O=C(CN1c2nc(N3C[C@@H]4C[C@H]3CO4)cc(=O)n2CC[C@H]1C(F)(F)F)N1CC2CCC(C1)O2` [Compound 98, (8S)-2-(1S,4S)-2-Oxa-5-azabicyclo[2.2.1]hept-5-yl-9-[2-(8-oxa-3-azabicyclo[3.2.1]oct-3-yl)-2-oxoethyl]-8-trifluoromethyl-6,7,8,9-tetrahydropyrimido[1,2-a]pyrimidin-4-one] here?
**A.** > 10000 nM

**Q.** What about the IC50 [1] of the same molecule?
**A.** 140 nM

**Q.** `Cc1nc(CN2c3nc(N4C[C@@H]5C[C@H]4CO5)cc(=O)n3CC[C@H]2C(F)(F)F)no1` [Compound 59, (8S)-9-(5-Methyl-[1,2,4]oxadiazol-3-ylmethyl)-2-(1S,4S)-2-oxa-5-azabicyclo[2.2.1]hept-5-yl-8-trifluoromethyl-6,7,8,9-tetrahydropyrimido[1,2-a]pyrimidin-4-one] was tested. Which IC50 (human PI3Kα; [2]) did it give?
**A.** > 10000 nM

**Q.** And the IC50 [1, 3]?
**A.** 87 nM

**Q.** How did the IC50 (human PI3Kα; [2]) turn out when `O=C(CN1c2nc(N3C[C@@H]4C[C@H]3CO4)cc(=O)n2CC[C@H]1C(F)(F)F)c1cnc2c(c1)OCCN2` [Compound 38, (8S)-9-[2-(3,4-dihydro-2H-pyrido[3,2-b][1,4]oxazin-7-yl)-2-oxoethyl]-2-(1S,4S)-2-oxa-5-azabicyclo[2.2.1]hept-5-yl-8-trifluoromethyl-6,7,8,9-tetrahydropyrimido[1,2-a]pyrimidin-4-one] was run?
**A.** 5770 nM

**Q.** And the IC50 [1, 3]?
**A.** 140 nM

**Q.** With `CCNC(=O)Nc1ccc(CCN2c3nc(N4C[C@@H]5C[C@H]4CO5)cc(=O)n3CC[C@H]2C(F)(F)F)cc1` [Compound 23, 1-ethyl-3-{4-[2-((8S)-8-(1S,4S)-2-oxa-5-azabicyclo[2.2.1]hept-5-yl-6-oxo-2-trifluoromethyl-3,4-dihydro-2H,6H-pyrimido[1,2-a]pyrimidin-1-yl)ethyl]phenyl}urea] as the molecule, how does the IC50 (human PI3Kα; [2]) read?
**A.** 1040 nM

**Q.** And the IC50 [1, 3]?
**A.** 3 nM

**Q.** `Cc1nscc1C(=O)CN1c2nc(N3C[C@@H]4C[C@H]3CO4)cc(=O)n2CC[C@H]1C(F)(F)F` [Compound 107, (8S)-9-[2-(3-Methylisothiazol-4-yl)-2-oxoethyl]-2-(1S,4S)-2-oxa-5-azabicyclo[2.2.1]hept-5-yl-8-trifluoromethyl-6,7,8,9-tetrahydropyrimido[1,2-a]pyrimidin-4-one] was tested. Which IC50 (human PI3Kα; [2]) did it give?
**A.** > 10000 nM

**Q.** What about the IC50 [1, 3] of the same molecule?
**A.** 100 nM

**Q.** Which results are given for `CC(C)(C)C(=O)CN1c2nc(N3C[C@@H]4C[C@H]3CO4)cc(=O)n2C[C@@]1(C)C(F)(F)F` [Compound 30, 1-(3,3-Dimethyl-2-oxobutyl)-2-methyl-7-(1S,4S)-2-oxa-5-azabicyclo[2.2.1]hept-5-yl-2-((S)-trifluoromethyl)-2,3-dihydro-1H-imidazo[1,2-a]pyrimidin-5-one]?
**A.** IC50 (human PI3Kα; [2]): > 10000 nM; IC50 [1]: > 240 nM

**Q.** Which results are given for `O=c1cc(N2CC3CCC(C2)O3)nc2n1CC[C@@H](C(F)(F)F)N2CCCc1ccccc1` [Compound 84, (8S)-2-(8-oxa-3-azabicyclo[3.2.1]oct-3-yl)-9-(3-phenylpropyl)-8-trifluoromethyl-6,7,8,9-tetrahydropyrimido[1,2-a]pyrimidin-4-one]?
**A.** IC50 (human PI3Kα; [2]): 200 nM; IC50 [1, 3]: 110 nM

**Q.** `O=CN1CCC(CN2c3nc(N4C[C@@H]5C[C@H]4CO5)cc(=O)n3CC[C@H]2C(F)(F)F)CC1` [Compound 95, 4-((2S)-8-(1S,4S)-2-oxa-5-azabicyclo[2.2.1]hept-5-yl-6-oxo-2-trifluoromethyl-3,4-dihydro-2H,6H-pyrimido[1,2-a]pyrimidin-1-ylmethyl)piperidine-1-carbaldehyde] was tested. Which IC50 (human PI3Kα; [2]) did it give?
**A.** 180 nM

**Q.** And the IC50 [1, 3]?
**A.** 7 nM

**Q.** Which results are given for `Cc1cncc(C(=O)CN2c3nc(N4C[C@@H]5C[C@H]4CO5)cc(=O)n3C[C@@]2(C)C(F)(F)F)c1` [Compound 16, 2-methyl-1-[2-(5-methylpyrid-3-yl)-2-oxoethyl]-7-(1S,4S)-2-oxa-5-azabicyclo[2.2.1]hept-5-yl-2-((S)-trifluoromethyl)-2,3-dihydro-1H-imidazo[1,2-a]pyrimidin-5-one]?
**A.** IC50 (human PI3Kα; [2]): > 7200 nM; IC50 [1, 3]: > 200 nM

**Q.** For `COc1ncccc1C(=O)CN1c2nc(N3C[C@@H]4C[C@H]3CO4)cc(=O)n2CC[C@H]1C(F)(F)F` [Compound 65, (8S)-9-[2-(2-Methoxypyrid-3-yl)-2-oxoethyl]-2-(1S,4S)-2-oxa-5-azabicyclo[2.2.1]hept-5-yl-8-trifluoromethyl-6,7,8,9-tetrahydropyrimido[1,2-a]pyrimidin-4-one], which IC50 (human PI3Kα; [2]) is on record?
**A.** > 10000 nM

**Q.** And the IC50 [1, 3]?
**A.** 21 nM

**Q.** For `Cc1ccc(C(=O)CN2c3nc(N4C[C@@H]5C[C@H]4CO5)cc(=O)n3CC[C@H]2C(F)(F)F)cn1` [Compound 4, (8S)-9-[2-(6-methylpyrid-3-yl)-2-oxoethyl]-2-(1S,4S)-2-oxa-5-azabicyclo[2.2.1]hept-5-yl-8-trifluoromethyl-6,7,8,9-tetrahydropyrimido[1,2-a]pyrimidin-4-one], which IC50 (human PI3Kα; [2]) is on record?
**A.** > 10000 nM

**Q.** What about the IC50 [1, 3] of the same molecule?
**A.** 58 nM

**Q.** Which results are given for `CN(C)c1ccc(C(=O)CN2c3nc(N4C[C@@H]5C[C@H]4CO5)cc(=O)n3C[C@@]2(C)C(F)(F)F)cn1` [Compound 8, 1-[2-(6-Dimethylaminopyrid-3-yl)-2-oxoethyl]-2-(S)-methyl-7-(1S,4S)-2-oxa-5-azabicyclo[2.2.1]hept-5-yl-2-trifluoromethyl-2,3-dihydro-1H-imidazo[1,2-a]pyrimidin-5-one]?
**A.** IC50 (human PI3Kα; [2]): > 10000 nM; IC50 [1, 3]: > 200 nM

**Q.** For `O=C(CN1c2nc(N3C[C@@H]4C[C@H]3CO4)cc(=O)n2CC[C@H]1C(F)(F)F)N1C2CCC1COC2` [Compound 99, (8S)-2-(1S,4S)-2-oxa-5-azabicyclo[2.2.1]hept-5-yl-9-[2-(3-oxa-8-azabicyclo[3.2.1]oct-8-yl)-2-oxoethyl]-8-trifluoromethyl-6,7,8,9-tetrahydropyrimido[1,2-a]pyrimidin-4-one], which IC50 (human PI3Kα) is on record?
**A.** > 10000 nM

**Q.** And the IC50 [1, 3]?
**A.** 170 nM

**Q.** `CN(C)c1ccc(C(=O)CN2c3nc(N4C[C@@H]5C[C@H]4CO5)cc(=O)n3CC[C@H]2C(F)(F)F)cn1` [Compound 6, (8S)-9-[2-(6-dimethylaminopyrid-3-yl)-2-oxoethyl]-2-(1S,4S)-2-oxa-5-azabicyclo[2.2.1]hept-5-yl-8-trifluoromethyl-6,7,8,9-tetrahydropyrimido[1,2-a]pyrimidin-4-one] was tested. Which IC50 (human PI3Kα; [2]) did it give?
**A.** > 10000 nM

**Q.** And the IC50 [1, 3]?
**A.** > 200 nM

**Q.** For `CCC(O)(CC)CCN1c2nc(N3C[C@@H]4C[C@H]3CO4)cc(=O)n2CC[C@H]1C(F)(F)F` [Compound 49, (8S)-9-(3-ethyl-3-hydroxypentyl)-2-(1S,4S)-2-oxa-5-azabicyclo[2.2.1]hept-5-yl-8-trifluoromethyl-6,7,8,9-tetrahydropyrimido[1,2-a]pyrimidin-4-one], which IC50 (human PI3Kα; [2]) is on record?
**A.** 2740 nM

**Q.** What about the IC50 [1, 3] of the same molecule?
**A.** 6 nM

**Q.** Which results are given for `O=c1cc(N2CC3CCC(C2)O3)nc2n1CC[C@@H](C(F)(F)F)N2CCc1ccc(O)cc1` [Compound 83, (8S)-9-[2-(4-Hydroxyphenyl)ethyl]-2-(8-oxa-3-azabicyclo[3.2.1]oct-3-yl)-8-trifluoromethyl-6,7,8,9-tetrahydropyrimido[1,2-a]pyrimidin-4-one]?
**A.** IC50 (human PI3Kα; [2]): 190 nM; IC50 [1, 3]: 10 nM
